From ChEMBL document CHEMBL5154712, “Activators of the Anticipatory Unfolded Protein Response with Enhanced Selectivity for Estrogen Receptor Positive Breast Cancer” (J Med Chem, 2022)
Active and inactive are the calls of the source. The rule behind the calls is not given here.

What was measured:
MDA-MB-231 [1] = experiment: Anticancer activity against ERalpha negative human MDA-MB-231 cells assessed as cell growth inhibition incubated for 168 hrs by alamar blue assay; type: functional, cell-based; conditions: MDA-MB-231, 168 h
HCT-116 [2] = experiment: Anticancer activity against ERalpha negative human HCT-116 cells assessed as cell growth inhibition incubated for 24 hrs by alamar blue assay; type: functional, cell-based; conditions: HCT-116, 24 h
HCT-116 [3] = experiment: Anticancer activity against ERalpha negative human HCT-116 cells assessed as cell growth inhibition incubated for 72 hrs by alamar blue assay; type: functional, cell-based; conditions: HCT-116, 72 h
HCT-116 [4] = experiment: Induction of ER stress in human HCT-116 cells assessed as increase in phospho-EIF2alpha expression at 0.1 to 10 uM measured after 24 to 48 hrs by Western blot analysis; type: functional, cell-based; conditions: dose 0.1-10 µM, time 24-48 hrs
[5] = Stability of the compound in simulated gastric fluid assessed as compound remaining measured after 120 mins by LC-MS/MS; type: ADME; conditions: read-out: Stability
[6] = Toxicity in athymic nude mouse xenografted with human MCF7 cells assessed as change in body weight at 5 mg/kg, iv administered once a week for three doses administered for 14 days; type: organism-based; conditions: in vivo, 336 h, time 14 day
[7] = MRT in CD-1 mouse at 20 mg/kg, iv by LC-MS/MS analysis; type: ADME, organism-based; conditions: in vivo
MDA-MB-436 [8] = experiment: Anticancer activity against ERalpha negative human MDA-MB-436 cells assessed as cell growth inhibition incubated for 24 hrs by alamar blue assay; type: functional, cell-based; conditions: MDA-MB-436, 24 h
[9] = Half life in CD-1 mouse at 20 mg/kg, iv by LC-MS/MS analysis; type: ADME, organism-based; conditions: in vivo
[10] = Half life in mouse; type: ADME, organism-based; conditions: in vivo
[11] = AUC in CD-1 mouse at 20 mg/kg, iv by LC-MS/MS analysis; type: ADME, organism-based; parameters: dose 20 mg/kg, route iv; conditions: in vivo
T47D [12] = experiment: Anticancer activity against human T47D cells harbouring ERalphaY537S mutant assessed as cell growth inhibition incubated for 24 hrs by alamar blue assay; type: functional, cell-based
MDA-MB-436 [13] = experiment: Anticancer activity against ERalpha negative human MDA-MB-436 cells assessed as cell growth inhibition incubated for 72 hrs by alamar blue assay; type: functional, cell-based; conditions: MDA-MB-436, 72 h
MCF7 [14] = experiment: Anticancer activity against human MCF7 cells assessed as reduction in cell viability incubated for 24 hrs in presence of 10% CD-FBS by alamar blue assay; type: functional, cell-based
MCF7 [15] = experiment: Antitumor activity against human MCF7 cells xenografted in athymic nude mouse assessed as reduction in tumor growth at 5 mg/kg, iv administered once a week for three doses administered for 14 days; type: functional, organism-based; conditions: time 14.0 day
[16] = Volume of distribution at steady state in CD-1 mouse at 20 mg/kg, iv by LC-MS/MS analysis; type: ADME, organism-based; conditions: in vivo
T47D [17] = experiment: Anticancer activity against ERalpha positive human T47D cells assessed as cell growth inhibition incubated for 24 hrs by alamar blue assay; type: functional, cell-based
HT-29 [18] = experiment: Anticancer activity against ERalpha negative human HT-29 cells assessed as cell growth inhibition incubated for 72 hrs by alamar blue assay; type: functional, cell-based; conditions: HT-29, 72 h
[19] = Toxicity in po dosed CD-1 mouse assessed as maximum tolerated dose administered as single dose; type: organism-based; conditions: in vivo
MCF7 [20] = experiment: Anticancer activity against human MCF7 cells assessed as cell growth inhibition incubated for 24 hrs by alamar blue assay; type: functional, cell-based; conditions: MCF7, 24 h
[21] = Cmax in CD-1 mouse at 20 mg/kg, iv by LC-MS/MS analysis; type: ADME, organism-based; parameters: dose 20 mg/kg, route iv; conditions: in vivo
HCT-116 [22] = experiment: Induction of ER stress in human HCT-116 cells assessed as increase in ATF6alpha-p90 cleavage at 0.1 to 10 uM measured after 24 to 48 hrs by Western blot analysis; type: functional, cell-based; conditions: dose 0.1-10 µM, time 24-48 hrs
[23] = Oral bioavailability in mouse; type: ADME, organism-based; conditions: in vivo
MDA-MB-231 [24] = experiment: Anticancer activity against ERalpha negative human MDA-MB-231 cells assessed as cell growth inhibition incubated for 72 hrs by alamar blue assay; type: functional, cell-based; conditions: MDA-MB-231, 72 h
T47D [25] = experiment: Anticancer activity against human T47D cells harbouring ERalphaD538G mutant assessed as cell growth inhibition incubated for 24 hrs by alamar blue assay; type: functional, cell-based
HT-29 [26] = experiment: Anticancer activity against ERalpha negative human HT-29 cells assessed as cell growth inhibition incubated for 24 hrs by alamar blue assay; type: functional, cell-based; conditions: HT-29, 24 h
MDA-MB-231 [27] = experiment: Anticancer activity against ERalpha negative human MDA-MB-231 cells assessed as cell growth inhibition incubated for 24 hrs by alamar blue assay; type: functional, cell-based; conditions: MDA-MB-231, 24 h
[28] = Toxicity in iv dosed Sprague-Dawley rat assessed as maximum tolerated dose administered as single dose; type: organism-based; conditions: in vivo
MCF7 [29] = experiment: Anticancer activity against human MCF7 cells assessed as reduction in cell viability incubated for 24 hrs in presence of 10% CD-FBS and 17-beta-estradiol by alamar blue assay; type: functional, cell-based
MCF7 [30] = experiment: Anticancer activity against ERalpha positive human MCF7 cells assessed as cell growth inhibition incubated for 72 hrs by alamar blue assay; type: functional, cell-based; conditions: MCF7, 72 h
[31] = Oral bioavailability in CD-1 mouse at 40 mg/kg by LC-MS/MS analysis; type: ADME, organism-based; conditions: in vivo
[32] = Selectivity ratio of IC50 for human MDA-MB-231 cells to IC50 for human MCF7 cells; type: functional
[33] = Stability of the compound in simulated gastric fluid assessed as half life measured upto 120 mins by LC-MS/MS analysis; type: ADME
[34] = Clearance in CD-1 mouse at 20 mg/kg, iv by LC-MS/MS analysis; type: ADME, organism-based; conditions: in vivo
[35] = Toxicity in iv dosed CD-1 mouse assessed as maximum tolerated dose administered as single dose; type: organism-based; conditions: in vivo
[36] = Selectivity ratio of IC50 for human HT-29 cells to IC50 for human MCF7 cells; type: functional
[37] = Selectivity ratio of IC50 for human MDA-MB-436 cells to IC50 for human MCF7 cells; type: functional
HCT-116 [38] = experiment: Anticancer activity against ERalpha negative human HCT-116 cells assessed as cell growth inhibition incubated for 168 hrs by alamar blue assay; type: functional, cell-based; conditions: HCT-116, 168 h
[39] = Selectivity ratio of IC50 for human HCT-116 cells to IC50 for human MCF7 cells; type: functional

## O=C1Nc2c(C(F)(F)F)cccc2C1(c1ccc(O)cc1)c1ccc(OC(F)(F)F)cc1 (stereo not drawn)
MDA-MB-231 [1]
  IC50: 6 µM
HCT-116 [2]
  IC50: 11 µM
HCT-116 [3]
  IC50: 0.26 µM
HCT-116 [4]
  Activity: Active
[5]
  remaining at 2 h: 93%
[6]
  Activity: Non-Toxic
[7]; mouse, iv, 20 mg/kg
  MRT: 306 min
MDA-MB-436 [8]
  IC50: 22 µM
[9]; mouse, iv, 20 mg/kg
  t1/2: 55 min
[10]
  half-life: > 120 min
[11]; mouse
  AUC: 10.1 µg·h/mL
T47D [12]
  IC50: 10 nM
MDA-MB-436 [13]
  IC50: 14 µM
MCF7 [14]
  Activity: Active
MCF7 [15]
  Activity: Active
[16]; mouse, iv, 20 mg/kg
  Vdss: 10.1 L/kg
T47D [17]
  IC50: 20 nM
HT-29 [18]
  IC50: 0.25 µM
[19]
  MTD: > 150 mg/kg
MCF7 [20]
  IC50: 20 nM
[21]; mouse
  Cmax: 7.7 µg/mL
HCT-116 [22]
  Activity: Active
[23]
  bioavailability: 47%
MDA-MB-231 [24]
  IC50: 8 µM
T47D [25]
  IC50: 15 nM
HT-29 [26]
  IC50: 0.21 µM
MDA-MB-231 [27]
  IC50: 23 µM
[28]
  MTD: 10 mg/kg
MCF7 [29]
  Activity: Active

## O=C1Nc2c(C(F)(F)F)cccc2[C@@]1(c1ccc(O)cc1)C1CCC(F)(F)CC1
MCF7 [20]
  IC50: > 1000 nM

## CC1CN(C2(c3ccc(O)cc3)C(=O)Nc3c(C(F)(F)F)cccc32)CCC1(F)F (stereo not drawn)
MCF7 [20]
  IC50: 70 nM

## Cc1cc(C2(c3ccc(OC(F)(F)F)cc3)C(=O)Nc3c(C(F)(F)F)cccc32)ccc1O (stereo not drawn)
MCF7 [20]
  IC50: > 1000 nM

## O=C1Nc2c(C(F)(F)F)cccc2[C@]1(c1ccc(O)cc1)N1CC(F)(F)C(F)(F)C1
MCF7 [30]
  IC50: > 1000 nM
MCF7 [14]; MCF7, 24 h
  IC50: > 1000 nM
MCF7 [20]
  IC50: > 1000 nM

## O=C1Nc2c(C(F)(F)F)cccc2C1(c1ccc(O)cc1)N1CCC(O)CC1 (stereo not drawn)
MCF7 [20]
  IC50: > 1000 nM

## O=C1Nc2c(C(F)(F)F)cccc2[C@]1(c1ccc(O)cc1)C1CCC(F)(F)CC1
[31]
  bioavailability: 6%
MDA-MB-231 [1]
  IC50: 33 µM
HCT-116 [2]
  IC50: 55 µM
HCT-116 [3]
  IC50: 55 µM
[32]
  Ratio IC50: 1900
[5]
  remaining at 2 h: 13%
[6]
  Activity: Non-Toxic
[33]
  half-life: 56 min
[7]; CD-1, mouse, read-out: MRT
  MRT: 54 min
MCF7 [30]
  IC50: 17 nM
MDA-MB-436 [8]
  IC50: 64 µM
[9]; CD-1, mouse
  half-life: 18 min
[11]; CD-1, mouse, read-out: AUC
  AUC: 6.3 µg·h/mL
[34]
  clearance: 52 mL/min/kg
[35]
  MTD: 95 mg/kg
T47D [12]
  IC50: 7 nM
[36]
  Ratio IC50: 1600
MDA-MB-436 [13]
  IC50: 55 µM
MCF7 [14]
  Activity: Active
MCF7 [15]
  Activity: Active
[37]
  Ratio IC50: 3200
[16]; CD-1, mouse, read-out: Vdss
  Vd: 2.8 L/kg
T47D [17]
  IC50: 16 nM
HT-29 [18]
  IC50: 27 µM
[19]
  MTD: > 200 mg/kg
HCT-116 [38]
  IC50: 42 µM
MCF7 [20]
  IC50: 17 nM
[21]; CD-1, mouse, read-out: Cmax
  Cmax: 14.7 µg/mL
[39]
  Ratio IC50: 3200
MDA-MB-231 [24]
  IC50: 55 µM
T47D [25]
  IC50: 9 nM
HT-29 [26]
  IC50: 33 µM
MDA-MB-231 [27]
  IC50: 55 µM
[28]
  MTD: > 50 mg/kg
MCF7 [29]
  Activity: Active

## O=C1Nc2c(C(F)(F)F)cccc2C1(c1ccc(OC(F)(F)F)cc1)c1ccc(O)c(O)c1 (stereo not drawn)
MCF7 [20]
  IC50: 49 nM

## O=C1Nc2c(C(F)(F)F)cccc2[C@@]1(c1ccc(O)cc1)N1CCC(F)(F)C1
HCT-116 [2]
  IC50: 45 µM
HCT-116 [3]
  IC50: 20 µM
[32]
  Ratio IC50: 1500
[5]
  remaining at 2 h: 20%
[36]
  Ratio IC50: 1400
HT-29 [18]
  IC50: 30 µM
MCF7 [20]
  IC50: 17 nM
[39]
  Ratio IC50: 900
MDA-MB-231 [24]
  IC50: 32 µM
HT-29 [26]
  IC50: 35 µM
MDA-MB-231 [27]
  IC50: 51 µM

## O=C1Nc2c(C(F)(F)F)cccc2C1(c1ccc(O)cc1)N1CCC(F)(F)CC1 (stereo not drawn)
MCF7 [20]
  IC50: 35 nM

## O=C1Nc2c(C(F)(F)F)cccc2C1(c1ccc(O)cc1)N1CCCCC1 (stereo not drawn)
MCF7 [20]
  IC50: > 1000 nM

## O=C1Nc2c(C(F)(F)F)cccc2C1(c1ccc(OC(F)(F)F)cc1)c1cc(F)c(O)c(F)c1 (stereo not drawn)
MCF7 [20]
  IC50: > 1000 nM

## O=C1Nc2c(C(F)(F)F)cccc2[C@@]1(c1ccc(O)cc1)N1CC(F)(F)C(F)(F)C1
HCT-116 [2]
  IC50: 24 µM
HCT-116 [3]
  IC50: 15 µM
[32]
  Ratio IC50: 3500
[5]
  remaining at 2 h: 27%
MCF7 [30]
  IC50: 4 nM
[36]
  Ratio IC50: 3800
HT-29 [18]
  IC50: 15 µM
MCF7 [20]
  IC50: 5 nM
[39]
  Ratio IC50: 3800
MDA-MB-231 [24]
  IC50: 14 µM
HT-29 [26]
  IC50: 25 µM
MDA-MB-231 [27]
  IC50: 22 µM
